pIC50: −log10 of the molar value.
Test system: MDA-MB-231
Test: Cytotoxicity against human MDA-MB-231 cells after 3 days by Celltiter-Glo assay
Format: functional, cell-based
Conditions: MDA-MB-231, 72 h

| Compound | pIC50 |
| --- | --- |
| C=C(C)[C@H]1CC=C2[C@@H](CC[C@]3(C)[C@@H]([C@@H](CCC=C(C)C)C(=O)O)CC[C@@]23C)[C@]1(C)CCC(=O)OC | 4.26 |
| C=C(C)[C@H]1CC=C2[C@@H](CC[C@]3(C)[C@@H]([C@@H](CCC=C(C)C)C(=O)O)CC[C@@]23C)[C@]1(C)CCC(=O)NCc1ccc(Br)cc1 | 3.85 |
| C=C(C)[C@H]1CC=C2[C@@H](CC[C@]3(C)[C@@H]([C@@H](CCC=C(C)C)C(=O)O)CC[C@@]23C)[C@]1(C)CCC(=O)O | 3.90 |
| C=C(C)[C@H]1CC=C2[C@@H](CC[C@]3(C)[C@@H]([C@@H](CCC=C(C)C)C(=O)OC)CC[C@@]23C)[C@]1(C)CCC(=O)OC | 4.20 |
| CC[C@H](/C=C/[C@@H](C)[C@H]1CC[C@H]2[C@@H]3CC=C4C[C@@H](O)CC[C@]4(C)[C@H]3CC[C@]12C)C(C)C [STIGMASTEROL] | 3.25 |
